According to PMC11721293 (JCI Insight, 2025):
Values joined by “and” are separate entries in the source; they are usually repeats but may differ in a detail not shown here. Identical values can stand only once.

Experiments:
[1] = system: SARS-CoV-2-nLuc in cells overexpressing WT FTase; test: microbe, parasite or virus in culture; format: cell-based; conditions: for luciferase activity (relative): WT
[2] = system: omicron BA4.6 variant; test: Drug combination, omicron BA4.6 in VeroE6, qRT-PCR; format: cell-based, SARS-CoV-2; conditions: replicates
[3] = system: SARS-CoV-2-nLuc in cells overexpressing W106R mutant FTase; format: cell-based
[4] = system: SARS-CoV-2-nLUC; format: cell-based
[5] = system: SARS-CoV-2-nLUC; test: microbe, parasite or virus in culture; format: cell-based; conditions: GGTI vs DMSO; replicates

SMILES: NC(=O)N1CCC(CC(=O)N2CCC([C@H]3c4ncc(Br)cc4CCc4cc(Cl)cc(Br)c43)CC2)CC1 [LNF, lonafarnib]
- IC50 ([1]; Severe acute respiratory syndrome coronavirus 2, Vero C1008, VeroE6 transfected with WT FNTB, 24 h): 1.1 µM
- luciferase activity (relative) ([1]; Log[LNF} mM (printed) 0.09691): 63.7112 and 63.9819 and 49.739 and 50.5313
- luciferase activity (relative) ([1]; Log[LNF} mM (printed) 0.39794): 34.2371 and 34.2326 and 46.1621 and 47.4504
- luciferase activity (relative) ([1]; Log[LNF} mM (printed) 0.69897): 15.3696 and 15.2721 and 16.4684 and 16.5029
- luciferase activity (relative) ([1]; Log[LNF} mM (printed) 1): 6.188 and 5.457 and 5.008 and 4.944
- luciferase activity (relative) ([1]; Log[LNF} mM (printed) -0.20412): 54.7411 and 54.7908 and 56.706 and 57.079
- luciferase activity (relative) ([1]; Log[LNF} mM (printed) -0.50515): 62.6012 and 61.9491 and 68.0615 and 68.2295
- luciferase activity (relative) ([1]; Log[LNF} mM (printed) -0.80618): 99.8257 and 98.9 and 84.2901 and 84.2134
- luciferase activity (relative) ([1]; Log[LNF} mM (printed) -1.10721): 97.017 and 96.4383 and 93.6225 and 92.4394
- S3E viral level relative to LNF 0/ NRTV 0 ([2]; LNF 1/ NRTV 0): 69.1766 and 49.5863 and 50.5202
- S3D viral level relative to LNF 0/ RDV 0 ([2]; LNF 1/ RDV 0): 32.8373 and 32.7511 and 35.1123
- S3E viral level relative to LNF 0/ NRTV 0 ([2]; LNF 10/ NRTV 0): 2.995 and 4.305 and 4.101
- S3D viral level relative to LNF 0/ RDV 0 ([2]; LNF 10/ RDV 0): 2.77 and 3.103 and 2.149
- fold less effective in cells expressing mutant FTase vs WT [3]: ~2 fold
- IC50 ([3]; read-out: Mut IC50): 2.2 µM

SMILES: CC(C)(C)[C@H](NC(=O)C(F)(F)F)C(=O)N1C[C@H]2[C@@H]([C@H]1C(=O)N[C@H](C#N)C[C@@H]1CCNC1=O)C2(C)C [NRTV, nirmatrelvir]
- S3E viral level relative to LNF 0/ NRTV 0 ([2]; LNF 0/ NRTV 0.5): 47.9329 and 37.1942 and 53.3183
- S3E viral level relative to LNF 0/ NRTV 0 ([2]; LNF 0/ NRTV 5): 1.354 and 1.072 and 1.497

SMILES: CN(C)C(=O)COC(=O)Cc1ccc(OC(=O)c2ccc(NC(=N)N)cc2)cc1 [camostat]
- infection signal (sheet S4F) [4]: 74.3368 and 81.9164 and 86.4071 and 85.3028 and 90.7155 and 94.6132 and 81.833 and 79.6415

SMILES: Cc1nc[nH]c1CN1CCN(C(=O)N[C@@H](CC(C)C)C(=O)O)[C@@H](Cc2ccccc2)C1=O [GGTI2418]
- signal relative to DMSO (sheet S7A) [5]: 90.3685 and 93.0121 and 91.627 and 90.3081
